# Measurements published in US20220041627A1, “PRODRUGS OF ANTI-CANCER AND ANTI-AUTOIMMUNE DISEASES THERAPEUTIC AGENTS, AND METHODS OF MAKING AND USE THEREOF” (UNIVERSITY OF MARYLAND, BALTIMORE, priority 2018, published 2022).
# Key:
# [1] = system: U251; test: NCI-60 growth inhibition, U251; assay type: cell-based, human
# From the text: (§1) The anticancer effects of compounds 1a-1b against 60 human cancer cell lines (the Developmental Therapeutics Program of NCI) were studied. The cell lines were derived from different cancer types including leukemia, non-small-cell lung cancer, colon cancer, CNS cancer, melanoma, ovarian cancer, renal cancer, prostate cancer, and breast cancer (Table 1; the assay protocol can be found at: https://dtp.cancer.gov/default.htm). Compound 1a caused over 50% growth inhibition for most tested cell lines. […] Without wishing to be bound by any particular theory, it is believed that the differences in the anticancer effects between compounds 1a and 1b may be due to the more favorable cell membrane permeability of the boronic ester 1a.
# [2] = system: RPMI-8226; test: NCI-60 growth inhibition, RPMI-8226; assay type: cell-based, human
# From the text: as §1
# [3] = system: breast cancer MCF7 cells; test: Cell viability (CCK8) in breast cancer MCF7 cells; assay type: cell-based, human; settings: different concentrations, compared with parent drug 5-FU
# Description: (§2) FIGS. 2A and 2B illustrate the anticancer effects and selectivity of 5-FU and compounds 1a-1c. Cell viability was analyzed after the breast cancer MCF7 cells (FIG. 2A) and normal MEC1 cells (FIG. 2B) were treated with 5-FU or compounds 1a-1c at different concentrations. Data are presented as mean±SD, n=4.
# (§3) Cell Counting Kit-8 (CCK8, Dojingo) was used to carry out the cytotoxicity assessment of the prodrugs. Seeded cells were treated with varying compound concentrations for 48-72 h and the CCK8 kit was used to measure the cytotoxicity. For NAC experiments, this ROS scavenger was pre-incubated with the cells for 2 h and then co-incubated with the prodrugs for additional 48 hours unless otherwise noted.
# (§4) The anticancer effects of new compounds 1a and 1b were tested using the breast cancer MCF7 cells and normal MEC1 cells (FIGS. 2A and 2B). […] These differential killing results highlight the specificity of new prodrugs 1a-1b for cancer cells over normal cells. […] To further verify the role of ROS in the drug release process, the MTT assays was performed, using MCF7 cells pretreated with the ROS scavenger N-Acetyl-Cysteine (NAC).
# [4] = system: A549/ATCC; test: NCI-60 growth inhibition, A549/ATCC; assay type: cell-based, human; settings: Non-Small Cell lung Cancer A549/ATCC, 48 h
# From the text: as §1
# [5] = system: SK-MEL-5; test: NCI-60 growth inhibition, SK-MEL-5; assay type: cell-based, human
# From the text: as §1
# [6] = system: SF-268; test: NCI-60 growth inhibition, SF-268; assay type: cell-based, human
# From the text: as §1
# [7] = system: wild-type C57BL/6 male mice; test: Acute toxicity in mice; assay type: in vivo; settings: 100 mg/kg i.p. every other day for 15 days, compared to vehicle group
# Description: FIGS. 5A and 5B illustrate the survival rate (FIG. 5A) and body weight (FIG. 5B) curves of the various groups of mice. […] Mice were treated every other day by intraperitoneal (i.p.) injection for 15 days, the survival and body weights of the mice were recorded after treatment.
# Mice were treated every other day by intraperitoneal (i.p.) injection for 15 days, the survival and body weights of the mice were recorded after treatment.
# [8] = system: OVCAR-8; test: NCI-60 growth inhibition, OVCAR-8; assay type: cell-based, human
# From the text: as §1
# [9] = system: M14; test: NCI-60 growth inhibition, M14; assay type: cell-based, human
# From the text: as §1
# [10] = system: 786-0; test: NCI-60 growth inhibition, 786-0; assay type: cell-based, human
# From the text: as §1
# [11] = system: OVCAR-5; test: NCI-60 growth inhibition, OVCAR-5; assay type: cell-based, human
# From the text: as §1
# [12] = 5-FU release study with H2O2 (LC/MS); assay type: physicochemical; settings: for activation by H2O2 to release 5-FU: prodrug 100 μM, H2O2 5 equiv, 30% DMSO in PBS, 37° C., RP-UPLC-MS
# Description: FIGS. 1A and 1B illustrate the release of 5-FU from compounds 1a-1b. Incubation of prodrugs 1a-1b (100 μM) was carried out in the presence of 5 equivalent of H2O2: (FIG. 1A) compound 1a and (FIG. 1B) compound 1b. The conversion of prodrugs 1a-1b and release of 5-FU was monitored. The data represent mean±SD of triplicates.
# Release of 5-FU from the prodrugs was performed at 37° C. in 30% DMSO/Phosphate Buffered saline (PBS). The compounds were co-incubated at 100 μM together with hydrogen peroxide (H2O2) in triplicates. At each time point, aliquots were taken from the solution and diluted in acetonitrile for quantitation in the LC/MS. LC/MS Analysis: samples were analyzed using Xevo TQ-XS Triple Quadrupole Mass Spectrometry (Waters Corp, Milford, Mass.). The column used was a Cortecs C18+2.7 μm 2.1×75 mm column. A 3-min gradient elution with 0.5 mL/min flow rate was used for the samples. Running gradient: 95% mobile phase A over 1.2 min, 95% mobile phase B over 1.2 min, and 95% A 0.6 min, with elution at 1.64 min for the compounds. The ion transitions monitored for the compounds were 5-FU (129.0>40.1) 1a (345.2>86.0), and 1b (263.1>176.1).
# Compounds 1a-1b were incubated in a mixture of DMSO in PBS (30%) with the addition of H2O2 (5 equiv) at 37° C. The conversion of prodrugs 1a-1b and the production of 5-FU were followed using RP-UPLC-MS.
# [13] = system: MALME-3M; test: NCI-60 growth inhibition, MALME-3M; assay type: cell-based, human; settings: Melanoma MALME-3M, 48 h
# From the text: as §1
# [14] = system: NCI/ADR-RES; test: NCI-60 growth inhibition, NCI/ADR-RES; assay type: cell-based, human; settings: Ovarian Cancer NCI/ADR-RES, 48 h
# From the text: as §1
# [15] = system: MCF7 cells pretreated with the ROS scavenger N-Acetyl-Cysteine (NAC); test: Cell viability of MCF7 cells pretreated with ROS scavenger NAC; assay type: cell-based, human; settings: 10 mM NAC, pre-incubation 2 hours
# Description: FIG. 3 illustrates the effect of ROS on the activation of 1a-b. Cell viability assay of MCF7 cancer cells treated with varying concentrations of 1a-b in the presence of 10 mM NAC. Pre-incubation with this ROS scavenger was carried out for 2 hours. Data are presented as mean SD, n=4.
# as §3, §4
# [16] = system: COLO 205; test: NCI-60 growth inhibition, COLO 205; assay type: cell-based, human
# From the text: as §1
# [17] = system: ACHN; test: NCI-60 growth inhibition, ACHN; assay type: cell-based, human; settings: Renal Cancer ACHN, 48 h
# From the text: as §1
# [18] = Cell viability (CCK8) in normal MEC1 cells; assay type: cell-based
# Description: as §2, §3, §4
smiles,measurement,setting,value
"CC1(C)OB(c2ccc(Cn3cc(F)c(=O)[nH]c3=O)cc2)OC1(C)C [Compound 1a, 5-Fluoro-1-(4-(4,4,5,5-tetramethyl-1,3,2-dioxaborolan-2-yl)benzyl)pyrimidine-2,4(1H,3H)-dione]",inhibition at 50 µM,"[1]; Homo sapiens, U-251, CNS Cancer U251, 48 h",17%
same,inhibition at 50 µM,"[2]; Homo sapiens, Leukemia RPMI-8226, 48 h",32%
same,antiproliferative activity / anticancer effects,[3],comparable antiproliferative activity as that of the parent drug 5-FU
same,inhibition at 50 µM,[4]; Homo sapiens,24%
same,inhibition at 50 µM,"[5]; Homo sapiens, Melanoma SK-MEL-5, 48 h",61%
same,inhibition at 50 µM,"[6]; Homo sapiens, CNS Cancer SF-268, 48 h",31%
same,body weights,[7],no obvious changes
same,inhibition at 50 µM,"[8]; Homo sapiens, Ovarian Cancer OVCAR-8, 48 h",25%
same,inhibition at 50 µM,"[9]; Homo sapiens, Melanoma M14, 48 h",55%
same,inhibition at 50 µM,"[10]; Homo sapiens, Renal Cancer 786-0, 48 h",19%
same,inhibition at 50 µM,"[11]; Homo sapiens, Ovarian Cancer OVCAR-5, 48 h",30%
same,activation by H2O2 to release 5-FU,[12],activated efficiently
same,hydrolysis of boronic ester to boronic acid 1b,"[12]; under the release assay conditions (30% DMSO in PBS, H2O2 5 equiv, 37° C.)",hydrolyzes rapidly
same,inhibition at 50 µM,[13]; Homo sapiens,55%
same,inhibition at 50 µM,[14]; Homo sapiens,6%
same,anticancer effects upon pretreatment of NAC,[15],decreased significantly
same,inhibition at 50 µM,"[16]; Homo sapiens, Colon Cancer COLO 205, 48 h",64%
same,inhibition at 50 µM,[17]; Homo sapiens,8%
same,viability at 100 µM,[18],> 95%
"O=c1[nH]c(=O)n(Cc2ccc(B(O)O)cc2)cc1F [Compound 1b, (4-((5-Fluoro-2,4-dioxo-3,4-dihydropyrimidin-I(2H)-yl)methyl)phenyl)boronic acid]",Growth Inhibition (%),"[1]; CNS Cancer U251, 50 μM, 48 h",4%
same,Growth Inhibition (%),"[2]; Leukemia RPMI-8226, 50 μM, 48 h",2%
same,Growth Inhibition (%),[4]; 50 μM,4%
same,Growth Inhibition (%),"[5]; Melanoma SK-MEL-5, 50 μM, 48 h",10%
same,Growth Inhibition (%),"[6]; CNS Cancer SF-268, 50 μM, 48 h",14%
same,Growth Inhibition (%),"[8]; Ovarian Cancer OVCAR-8, 50 μM, 48 h",6%
same,Growth Inhibition (%),"[9]; Melanoma M14, 50 μM, 48 h",17%
same,Growth Inhibition (%),"[10]; Renal Cancer 786-0, 50 μM, 48 h",6%
same,Growth Inhibition (%),"[11]; Ovarian Cancer OVCAR-5, 50 μM, 48 h",19%
same,activation by H2O2 to release 5-FU,[12],activated efficiently
same,Growth Inhibition (%),[13]; 50 μM,32%
same,Growth Inhibition (%),[14]; 50 μM,0%
same,anticancer effects upon pretreatment of NAC,[15],decreased significantly
same,Growth Inhibition (%),"[16]; Colon Cancer COLO 205, 50 μM, 48 h",8%
same,Growth Inhibition (%),[17]; 50 μM,0%
